A short description of series [1]: half-life in marmosets. Type of series: in vivo. As for the experimental part:
when dosed to marmosets at 3 mg/kg.

Series [2] deals with Citro. freundii DR(A8382031). Kind of series: MIC by agar-dilution, Diagnostic Sensitivity Test agar. It is filed as cell-based. The settings on record: Citrobacter freundii. From the text:
(§1) The following results were obtained for Example 1 and two comparative compounds on a standard in vitro test system using Diagnostic Sensitivity Test agar medium. The antibacterial activity is described in terms of the minimum inhibitory concentration (MIC) determined by the agar-dilution technique with an inoculum size of 10^4 CFU/spot.

Series [3] deals with Strep. pneumoniae (A8671001). The series is described as above. Type of series: cell-based. The settings on record: Streptococcus pneumoniae.
Excerpt: as §1

The subject of series [4] is E. coli DCO(A8341098). Described as above. Type of series: cell-based. The settings on record: Escherichia coli, inoculum 10^4 CFU/spot.
Excerpt: as §1

Series [5] deals with Citro. freundii DR(A8382034). Described as above. Type of series: cell-based. The settings on record: Citrobacter freundii, inoculum 10^4 CFU/spot.
Excerpt: as §1

Series [6] has as its system E. coli JS3 RTEM(A8341135). The description is as above. The settings on record: Escherichia coli. Type of series: cell-based.
Excerpt: as §1

Series [7] concerns A. anitratus (A8322001). The series is described as above. It is filed as cell-based. The following applies: Acinetobacter calcoaceticus.
Excerpt: as §1

For series [8], the system named is P. aeruginosa 18S(A8101024). The description is as above. The settings on record: Pseudomonas aeruginosa. Type of series: cell-based.
Excerpt: as §1

Series [9] has as its system Pr. morganii DR(A8433062). The series is described as above. It is filed as cell-based. The settings on record: Morganella morganii, inoculum 10^4 CFU/spot.
Excerpt: as §1

Series [10] concerns Ent. cloacae P99+(A8401053). The description is as above. It is filed as cell-based. The settings on record: Enterobacter cloacae.
Excerpt: as §1

The subject of series [11] is Strep. pyogenes (A8681018). Described as above. Type of series: cell-based. The following applies: Streptococcus pyogenes.
Excerpt: as §1

Series [12] concerns Serr. marcesens (A8421003). Described as above. Type of series: cell-based. The following applies: inoculum 10^4 CFU/spot.
Excerpt: as §1

Series [13] concerns S. dublin (A8369001). The description is as above. Type of series: cell-based. The settings on record: Salmonella enterica.
Excerpt: as §1

Series [14] concerns Serr. marcesens DR(A8421078). The description is as above. It is filed as cell-based. The settings on record: inoculum 10^4 CFU/spot.
Excerpt: as §1

For series [15], the system named is Ent. cloacae DR(A8401109). The series is described as above. The settings on record: Enterobacter cloacae, inoculum 10^4 CFU/spot. Type of series: cell-based.
Excerpt: as §1

Series [16] relates to Ent. cloacae P99-(A8401054). The description is as above. Type of series: cell-based. The settings on record: Enterobacter cloacae.
Excerpt: as §1

Series [17] has as its system P. aeruginosa PU21(A8101028). The description is as above. Type of series: cell-based. The following applies: Pseudomonas aeruginosa.
Excerpt: as §1

Series [18] has as its system Ent. cloacae DR(A8401108). Described as above. It is filed as cell-based. The settings on record: Enterobacter cloacae, inoculum 10^4 CFU/spot.
Excerpt: as §1

In series [19] the test system is P. stuartii DR(A8382031). The series is described as above. The settings on record: Providencia stuartii. Type of series: cell-based.
Excerpt: as §1

For series [20], the system named is Pr. morganii (A8433001). The series is described as above. It is filed as cell-based. The following applies: Morganella morganii, inoculum 10^4 CFU/spot.
Excerpt: as §1

Series [21] relates to K. oxytoca D1^+ (A8395056). The series is described as above. It is filed as cell-based. The following applies: Klebsiella oxytoca.
Excerpt: as §1

The test system of series [22] is P. aeruginosa DR18SH(A81011020). The description is as above. The settings on record: Pseudomonas aeruginosa. Type of series: cell-based.
Excerpt: as §1

SMILES strings stand for the structures. ≈ marks a conversion by molar mass, not a printed value. Read-outs that look alike come from different tables or passages of the source.

With `CC(C)(O/N=C(\C(=O)NC1C(=O)N2C(C(=O)O)=C(CSc3nnnn3-c3cc(O)c(O)c(Cl)c3CC(=O)O)CS[C@H]12)c1csc(N)n1)C(=O)O` (stereo partly shown) [Example 1, 7-[2-(2-Aminothiazol-4-yl)-2-((Z)-1-carboxy-1-methylethoxyimino)acetamido]-3-[(1-(2-carboxymethyl-3-chloro-4,5-dihydroxyphenyl)tetrazol-5-yl)thiomethyl]ceph-3-em-4-carboxylic acid], the “half-life (t 1/2) compared with representative compounds of EP-A-272827” value in [1] (in words) was “substantially and significantly longer”. In addition, the half-life (commonly the time needed for the level to fall by half in the phase considered) in series [1] (marmoset, in vivo, 3 mg/kg) is 20.7 h. The minimum inhibitory concentration (MIC) (in general, the lowest concentration that inhibits growth of the organism) in series [2] (Citro. freundii DR(A8382031), inoculum 10^4 CFU/spot, read-out: MIC) is 0.25 µg/mL (≈ 0.325 µM); in [3] (Strep. pneumoniae (A8671001), inoculum 10^4 CFU/spot, read-out: MIC), 0.03 µg/mL (≈ 0.039 µM); in series [4] it was 0.002 µg/mL (≈ 0.0026 µM); in [5] it was 0.5 µg/mL (≈ 0.649 µM); in series [6] it was 0.001 µg/mL (≈ 0.0013 µM); in series [7] (A. anitratus (A8322001), inoculum 10^4 CFU/spot, read-out: MIC) it was 0.06 µg/mL (≈ 0.0779 µM). Further, the minimum inhibitory concentration (MIC) worked out at 0.004 µg/mL (≈ 0.00519 µM) in [8] (P. aeruginosa 18S(A8101024), inoculum 10^4 CFU/spot, read-out: MIC); 0.06 µg/mL (≈ 0.0779 µM) in series [9]; 1 µg/mL (≈ 1.3 µM) in [10]; 0.5 µg/mL (≈ 0.649 µM) in [11] (Strep. pyogenes (A8681018), inoculum 10^4 CFU/spot, read-out: MIC); 0.008 µg/mL (≈ 0.0104 µM) in series [12]; 0.004 µg/mL (≈ 0.00519 µM) in [13] (S. dublin (A8369001), inoculum 10^4 CFU/spot, read-out: MIC). Besides, the minimum inhibitory concentration (MIC) came to 0.008 µg/mL (≈ 0.0104 µM) in series [14]; 0.125 µg/mL (≈ 0.162 µM) in series [15]; 0.125 µg/mL (≈ 0.162 µM) in series [16] (Ent. cloacae P99-(A8401054), inoculum 10^4 CFU/spot, read-out: MIC); 0.008 µg/mL (≈ 0.0104 µM) in [17] (P. aeruginosa PU21(A8101028), inoculum 10^4 CFU/spot, read-out: MIC); 0.25 µg/mL (≈ 0.325 µM) in series [18]; 0.03 µg/mL (≈ 0.039 µM) in series [19] (P. stuartii DR(A8382031), inoculum 10^4 CFU/spot, read-out: MIC). Further, the MIC in series [20] was found to be 0.008 µg/mL (≈ 0.0104 µM); in series [21] (K. oxytoca D1^+ (A8395056), inoculum 10^4 CFU/spot, read-out: MIC), 0.004 µg/mL (≈ 0.00519 µM); in series [22] (P. aeruginosa DR18SH(A81011020), inoculum 10^4 CFU/spot, read-out: MIC), 0.016 µg/mL (≈ 0.0208 µM).
As for `CC(C)(O/N=C(\C(=O)N[C@@H]1C(=O)N2C(C(=O)[O-])=C(C[n+]3ccccc3)CS[C@H]12)c1csc(N)n1)C(=O)O` [(B), ceftazidime, reference compound], the MIC in series [2] was 128 µg/mL (≈ 234 µM); in series [3] it was 0.125 µg/mL (≈ 0.229 µM); in series [4] it was 0.125 µg/mL (≈ 0.229 µM); in [5], 64 µg/mL (≈ 117 µM); in [6], 0.06 µg/mL (≈ 0.11 µM); in [7] it was 16 µg/mL (≈ 29.3 µM). The MIC in [8] turned out to be 2 µg/mL (≈ 3.66 µM); in [9] it was 16 µg/mL (≈ 29.3 µM); in series [11] it was 0.125 µg/mL (≈ 0.229 µM); in [12], 0.25 µg/mL (≈ 0.457 µM); in series [13] it was 0.125 µg/mL (≈ 0.229 µM); in [14], 0.5 µg/mL (≈ 0.915 µM). The MIC in series [15] came out at 32 µg/mL (≈ 58.5 µM); in [16], 0.125 µg/mL (≈ 0.229 µM); in series [17] it was 1 µg/mL (≈ 1.83 µM); in [18], 32 µg/mL (≈ 58.5 µM); in series [19], 4 µg/mL (≈ 7.32 µM); in [20] it was 0.06 µg/mL (≈ 0.11 µM). In addition, the minimum inhibitory concentration (MIC) in [21] turned out to be 0.5 µg/mL (≈ 0.915 µM); in [22], 16 µg/mL (≈ 29.3 µM).

The record behind these values is patent US5200404A, “3-tetrazolylthiomethyl cephalosporin antibiotics” (ICI Pharma, priority 1990, dated 1993).
